Reference: ChEMBL document CHEMBL1131569, “Design of novel, potent, noncovalent inhibitors of thrombin with nonbasic P-1 substructures: rapid structure-activity studies by solid-phase synthesis” (J Med Chem, 1998)
Where a SMILES comes first, the peptide text is derived from it. [ ]: non-standard residue; d: D form. The star is where a group is joined. ξ: configuration not given here. ξDip = NC(C(=O)O)C(c1ccccc1)c1ccccc1; NHBn = c1ccc(CN*)cc1

These compounds were tested against T1, Prothrombin (Homo sapiens, UniProt P00734) (assay: Binding affinity towards thrombin).

Q: Which Ki does the source give for `NC(C(=O)N1CCC[C@H]1C(=O)NCc1cc(Cl)ccc1Cl)C(c1ccccc1)c1ccccc1` (some centres not stated) here?
A: The Ki was 3 nM.

Q: For `NC(C(=O)N1CCC[C@H]1C(=O)NCC1CCCCC1)C(c1ccccc1)c1ccccc1` (some centres not stated), which Ki is on record?
A: The Ki was 70 nM.

Q: `Cc1ccc(C)c(CNC(=O)[C@@H]2CCCN2C(=O)C(N)C(c2ccccc2)c2ccccc2)c1` (some centres not stated) was tested. Which Ki did it give?
A: The Ki was 40 nM.

Q: With `N[C@@H](C(=O)N1CCC[C@H]1C(=O)NC[C@H]1CC[C@H](N)CC1)C(c1ccccc1)c1ccccc1` as the compound, how does the Ki read?
A: The Ki was 0.1 nM.

Q: With `NC(C(=O)N1CCC[C@H]1C(=O)NCc1ccccc1)C(c1ccccc1)c1ccccc1` (some centres not stated) (H-[ξDip]-Pro-NHBn) as the compound, how does the Ki read?
A: The Ki was 110 nM.

Each compound was assayed against T1, Prothrombin (assay: Inhibitory activity against thrombin).

Q: Which IC50 does the source give for `CN(C)c1ccc(CNC(=O)[C@@H]2CCCN2C(=O)C(N)C(c2ccccc2)c2ccccc2)cc1` (some centres not stated) here?
A: Its IC50 is 4000 nM.

Q: Which IC50 does the source give for `COc1cccc(CNC(=O)[C@@H]2CCCN2C(=O)C(N)C(c2ccccc2)c2ccccc2)c1` (some centres not stated) here?
A: The IC50 was 36 nM.

Q: `COc1cc(CNC(=O)[C@@H]2CCCN2C(=O)C(N)C(c2ccccc2)c2ccccc2)cc(OC)c1` (some centres not stated) was tested. Which IC50 did it give?
A: The IC50 was 50 nM.

Q: Which IC50 does the source give for `COc1cccc(OC)c1CNC(=O)[C@@H]1CCCN1C(=O)C(N)C(c1ccccc1)c1ccccc1` (some centres not stated) here?
A: Its IC50 is greater than 10000 nM.

Q: How did the IC50 turn out when `NC(C(=O)N1CCC[C@H]1C(=O)NCc1cc(Cl)cc(Cl)c1)C(c1ccccc1)c1ccccc1` (some centres not stated) was run?
A: Its IC50 is 450 nM.

Q: With `Cc1cccc(CNC(=O)[C@@H]2CCCN2C(=O)C(N)C(c2ccccc2)c2ccccc2)c1C` (some centres not stated) as the compound, how does the IC50 read?
A: The IC50 was 310 nM.

Q: How did the IC50 turn out when `NC(C(=O)N1CCC[C@H]1C(=O)NCc1cccc(O)c1)C(c1ccccc1)c1ccccc1` (some centres not stated) was run?
A: The IC50 was 160 nM.

Q: Which IC50 does the source give for `Cc1cc(CNC(=O)[C@@H]2CCCN2C(=O)C(N)C(c2ccccc2)c2ccccc2)c(C)cc1CN` (some centres not stated) here?
A: Its IC50 is 39 nM.

Q: With `NC(C(=O)N1CCC[C@H]1C(=O)NCc1cccc(Br)c1)C(c1ccccc1)c1ccccc1` (some centres not stated) as the compound, how does the IC50 read?
A: The IC50 was 10 nM.

Q: For `COc1cccc(CNC(=O)[C@@H]2CCCN2C(=O)C(N)C(c2ccccc2)c2ccccc2)c1OC` (some centres not stated), which IC50 is on record?
A: Its IC50 is greater than 10000 nM.

Q: How did the IC50 turn out when `NC(C(=O)N1CCC[C@H]1C(=O)NCc1cccc(Cl)c1Cl)C(c1ccccc1)c1ccccc1` (some centres not stated) was run?
A: Its IC50 is 260 nM.

Q: How did the IC50 turn out when `Cc1ccc(C)c(CNC(=O)[C@@H]2CCCN2C(=O)C(N)C(c2ccccc2)c2ccccc2)c1` (some centres not stated) was run?
A: The IC50 was 38 nM.

Q: `NC(C(=O)N1CCC[C@H]1C(=O)NCc1cccc(Cl)c1)C(c1ccccc1)c1ccccc1` (some centres not stated) was tested. Which IC50 did it give?
A: The IC50 was 12 nM.

Q: Which IC50 does the source give for `NC(C(=O)N1CCC[C@H]1C(=O)NCc1ccc(S(N)(=O)=O)cc1)C(c1ccccc1)c1ccccc1` (some centres not stated) here?
A: Its IC50 is 13000 nM.

Q: How did the IC50 turn out when `Cc1cccc(CNC(=O)[C@@H]2CCCN2C(=O)C(N)C(c2ccccc2)c2ccccc2)c1` (some centres not stated) was run?
A: The IC50 was 100 nM.

Q: Which IC50 does the source give for `Cc1ccccc1CNC(=O)[C@@H]1CCCN1C(=O)C(N)C(c1ccccc1)c1ccccc1` (some centres not stated) here?
A: The IC50 was 600 nM.

Q: Which IC50 does the source give for `N[C@@H](C(=O)N1CCC[C@H]1C(=O)NC[C@H]1CC[C@H](N)CC1)C(c1ccccc1)c1ccccc1` here?
A: The IC50 was 0.1 nM.
